Laboratory results reported in ChEMBL document CHEMBL3856187, “Cyclin Dependent Kinase 9 Inhibitors for Cancer Therapy” (J Med Chem, 2016).
Each block holds one molecule with its values, some of them ahead of it.

Assays:
[1] = Cytotoxicity against human HeLa cells assessed as decrease in cell viability after 72 hrs by MTT assay; format: toxicity, cell-based
[2] = target: T1, CDK9/cyclin T1 (Homo sapiens, UniProt P50750); experiment: Inhibition of human His6-tagged CDK9/cyclin T1 expressed in baculovirus infected sf9 cells using GST-CTD as substrate after 10 mins in presence of [gamma-32P]ATP by SDS-PAGE analysis
T1 sequence (O60563 whole entry): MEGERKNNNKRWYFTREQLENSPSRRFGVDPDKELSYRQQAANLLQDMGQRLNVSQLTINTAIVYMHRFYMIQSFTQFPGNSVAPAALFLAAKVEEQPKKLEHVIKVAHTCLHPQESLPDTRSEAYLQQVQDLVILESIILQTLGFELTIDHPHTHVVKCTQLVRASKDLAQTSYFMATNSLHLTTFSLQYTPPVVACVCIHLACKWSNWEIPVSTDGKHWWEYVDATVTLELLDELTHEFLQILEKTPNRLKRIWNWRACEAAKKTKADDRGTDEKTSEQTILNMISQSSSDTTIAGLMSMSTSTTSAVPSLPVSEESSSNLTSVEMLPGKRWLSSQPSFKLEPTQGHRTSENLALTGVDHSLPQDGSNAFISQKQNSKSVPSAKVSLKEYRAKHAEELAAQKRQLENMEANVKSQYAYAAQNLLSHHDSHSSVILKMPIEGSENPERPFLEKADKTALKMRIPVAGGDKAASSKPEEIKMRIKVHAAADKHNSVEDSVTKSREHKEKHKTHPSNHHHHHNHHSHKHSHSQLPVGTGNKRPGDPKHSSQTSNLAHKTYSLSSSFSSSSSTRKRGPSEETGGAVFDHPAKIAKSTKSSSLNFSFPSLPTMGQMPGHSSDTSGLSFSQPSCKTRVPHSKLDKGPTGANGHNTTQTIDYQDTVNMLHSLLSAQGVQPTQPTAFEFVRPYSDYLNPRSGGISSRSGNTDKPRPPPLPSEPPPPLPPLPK
T1 sequence (P50750 whole entry): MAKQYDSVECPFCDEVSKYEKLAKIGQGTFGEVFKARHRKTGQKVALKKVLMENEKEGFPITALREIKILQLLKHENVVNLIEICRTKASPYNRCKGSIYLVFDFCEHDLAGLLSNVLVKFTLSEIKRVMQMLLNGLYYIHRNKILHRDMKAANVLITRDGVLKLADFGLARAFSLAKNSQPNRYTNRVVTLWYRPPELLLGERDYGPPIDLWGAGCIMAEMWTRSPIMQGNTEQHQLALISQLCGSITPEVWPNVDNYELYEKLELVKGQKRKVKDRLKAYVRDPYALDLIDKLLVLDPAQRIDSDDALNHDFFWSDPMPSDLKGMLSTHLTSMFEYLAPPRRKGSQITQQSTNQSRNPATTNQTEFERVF

[3] = target: CDK2/Cyclin A2 (Homo sapiens, UniProt P24941); experiment: Inhibition of human full length C-terminal His6-tagged CDK2/N-terminal GST-tagged cyclin A using histone H1 as substrate after 10 mins by [gamma-32P]ATP based binding assay; format: protein-complex assay
[4] = target: CDK8/Cyclin C (Homo sapiens, UniProt P49336); experiment: Inhibition of CDK8/cyclin C (unknown origin) using RBER-CHKStide as substrate after 60 mins in presence of 33P-ATP by microbeta scintillation counting analysis; format: protein-complex assay
[5] = target: T2, CDK7/Cyclin H/MNAT1 (Homo sapiens, UniProt P50613); experiment: Inhibition of recombinant human full length C-terminal His6-tagged CDK7/cyclin H/N-terminal GST-tagged MAT1 expressed in baculovirus infected Sf21 insect cells using CDK7/9ptide as substrate after 60 mins in presence of 33P-ATP by microbeta scintillation counting analysis
T2 sequence (P51946 whole entry): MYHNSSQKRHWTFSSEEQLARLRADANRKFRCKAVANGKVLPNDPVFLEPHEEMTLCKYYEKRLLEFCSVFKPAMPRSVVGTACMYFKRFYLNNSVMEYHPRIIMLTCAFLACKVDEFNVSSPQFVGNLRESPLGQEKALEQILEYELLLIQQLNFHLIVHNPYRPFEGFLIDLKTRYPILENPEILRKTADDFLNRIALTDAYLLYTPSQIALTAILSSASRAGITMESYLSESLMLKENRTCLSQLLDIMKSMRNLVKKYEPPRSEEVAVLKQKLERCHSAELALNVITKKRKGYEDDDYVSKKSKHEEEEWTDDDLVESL
T2 sequence (P50613 whole entry): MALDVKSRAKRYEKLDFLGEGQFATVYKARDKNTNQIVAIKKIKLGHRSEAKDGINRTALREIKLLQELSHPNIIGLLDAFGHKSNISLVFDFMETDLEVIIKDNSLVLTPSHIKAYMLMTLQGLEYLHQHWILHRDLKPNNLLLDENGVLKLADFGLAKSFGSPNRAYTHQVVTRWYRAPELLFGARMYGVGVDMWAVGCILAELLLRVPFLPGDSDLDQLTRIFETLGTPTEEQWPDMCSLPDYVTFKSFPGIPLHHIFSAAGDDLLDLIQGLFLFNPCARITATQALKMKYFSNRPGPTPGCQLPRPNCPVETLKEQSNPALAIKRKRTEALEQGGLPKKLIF
T2 sequence (P51948 whole entry, further chain): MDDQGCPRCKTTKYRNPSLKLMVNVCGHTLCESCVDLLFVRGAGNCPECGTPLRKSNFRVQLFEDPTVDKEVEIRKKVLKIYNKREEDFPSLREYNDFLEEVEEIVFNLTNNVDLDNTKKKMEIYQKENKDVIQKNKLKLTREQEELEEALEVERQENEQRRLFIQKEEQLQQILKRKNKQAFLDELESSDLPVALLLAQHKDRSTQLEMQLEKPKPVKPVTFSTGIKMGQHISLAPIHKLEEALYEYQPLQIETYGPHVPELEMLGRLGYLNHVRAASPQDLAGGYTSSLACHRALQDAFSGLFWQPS

[6] = target: Cyclin-dependent kinase 1 (Homo sapiens, UniProt P06493); experiment: Inhibition of CDK1 (unknown origin)
Chain of Cyclin-dependent kinase 1 (P06493 whole entry): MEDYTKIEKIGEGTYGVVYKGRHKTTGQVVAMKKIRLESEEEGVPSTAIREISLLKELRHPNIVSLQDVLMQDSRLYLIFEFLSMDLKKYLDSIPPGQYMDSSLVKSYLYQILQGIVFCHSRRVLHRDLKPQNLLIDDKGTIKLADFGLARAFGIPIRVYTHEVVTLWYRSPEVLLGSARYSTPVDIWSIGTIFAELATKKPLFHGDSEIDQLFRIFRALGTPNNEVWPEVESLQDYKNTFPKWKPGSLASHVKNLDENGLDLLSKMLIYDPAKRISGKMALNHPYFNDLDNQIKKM

[7] = target: T3, Cyclin-dependent kinase 5 (Homo sapiens, UniProt Q00535); experiment: Inhibition of CDK5 (unknown origin)
T3 sequence (Q00535 whole entry): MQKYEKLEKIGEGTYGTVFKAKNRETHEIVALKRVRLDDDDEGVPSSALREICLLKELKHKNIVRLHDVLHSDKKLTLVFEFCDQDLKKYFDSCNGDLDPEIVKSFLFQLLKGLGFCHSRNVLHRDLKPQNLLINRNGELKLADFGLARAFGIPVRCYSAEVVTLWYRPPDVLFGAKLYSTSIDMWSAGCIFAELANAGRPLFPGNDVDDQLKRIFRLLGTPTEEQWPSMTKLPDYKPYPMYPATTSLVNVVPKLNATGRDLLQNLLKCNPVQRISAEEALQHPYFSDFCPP

[8] = target: Cyclin-dependent kinase 9 (Homo sapiens, UniProt P50750); experiment: Inhibition of human CDK9 (unknown origin)
Chain of Cyclin-dependent kinase 9 (P50750 whole entry, the tested form may be a part): as the sequence (P50750 whole entry) above

[9] = target: Cyclin-dependent kinase 2 (Homo sapiens, UniProt P24941); experiment: Binding affinity to full length human CDK2 (1 to 298 residues) expressed in bacterial expression system by KINOMEscan competition assay
[10] = target: Cyclin-dependent kinase 3 (Homo sapiens, UniProt Q00526); experiment: Inhibition of CDK3 (unknown origin)
[11] = target: Cyclin-dependent kinase 4 (Homo sapiens, UniProt P11802); experiment: Inhibition of CDK4 (unknown origin)
[12] = target: Receptor-type tyrosine-protein kinase FLT3 (Homo sapiens, UniProt P36888, D835Y); experiment: Inhibition of human recombinant N-terminal GST-tagged FLT3 D835Y mutant expressed in baculovirus infected Sf21 insect cells using abltide as substrate
[13] = target: T4, CDK3/Cyclin E (Homo sapiens, UniProt Q00526); experiment: Inhibition of recombinant human full length C-terminal His6-tagged CDK3/N-terminal GST-tagged cyclin E expressed in baculovirus infected Sf21 insect cells using Histone H1 as substrate
T4 sequence (P24864 whole entry): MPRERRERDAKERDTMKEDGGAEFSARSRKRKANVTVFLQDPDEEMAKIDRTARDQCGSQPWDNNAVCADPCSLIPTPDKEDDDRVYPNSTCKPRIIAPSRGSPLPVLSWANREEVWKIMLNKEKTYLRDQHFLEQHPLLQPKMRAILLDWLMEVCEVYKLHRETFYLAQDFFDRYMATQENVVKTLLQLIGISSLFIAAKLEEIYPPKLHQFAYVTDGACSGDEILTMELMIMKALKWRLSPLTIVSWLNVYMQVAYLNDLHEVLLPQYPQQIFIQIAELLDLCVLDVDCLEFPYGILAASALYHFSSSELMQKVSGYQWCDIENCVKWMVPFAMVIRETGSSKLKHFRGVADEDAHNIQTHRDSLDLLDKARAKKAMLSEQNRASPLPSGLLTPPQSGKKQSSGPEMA
T4 sequence (Q00526 whole entry): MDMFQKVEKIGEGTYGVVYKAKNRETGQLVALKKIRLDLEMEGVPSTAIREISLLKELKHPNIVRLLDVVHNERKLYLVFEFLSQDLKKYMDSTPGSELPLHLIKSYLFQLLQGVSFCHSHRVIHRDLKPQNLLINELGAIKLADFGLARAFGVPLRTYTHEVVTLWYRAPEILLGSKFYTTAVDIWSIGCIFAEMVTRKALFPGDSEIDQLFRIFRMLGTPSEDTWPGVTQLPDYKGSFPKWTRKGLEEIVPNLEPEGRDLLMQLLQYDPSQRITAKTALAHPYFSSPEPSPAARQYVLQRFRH

[14] = target: T2, CDK7/Cyclin H/MNAT1; experiment: Inhibition of recombinant human full length C-terminal His6-tagged CDK7/cyclin H/N-terminal GST-tagged MAT1 expressed in baculovirus infected Sf21 insect cells using cdk7 substrate peptide
[15] = target: T3, Cyclin-dependent kinase 5; experiment: Inhibition of human GST-tagged CDK5
[16] = Inhibition of CDK6/cyclin D (unknown origin); parameters: species or system Homo sapiens
[17] = target: T1, CDK9/cyclin T1; experiment: Inhibition of recombinant human full length C-terminal His6-tagged CDK9/cyclin T1 expressed in baculovirus infected Sf21 insect cells using 5TAMRA-cdk7tide as substrate after 4.5 hrs by IMAP assay
[18] = Inhibition of M-phase starfish oocytes CDK1/cyclin B after 30 mins by [gamma-33P]ATP based scintillation counting analysis; parameters: species or system Asteroidea
[19] = target: CDK9/cyclin T1 (Homo sapiens) (UniProt O60563+P50750); experiment: Inhibition of human CDK9/cyclin T1 by radiometric assay relative to control; format: protein-complex assay; parameters: concentration or dose not given beside the values; conditions: concentration not given here
[20] = target: CDK9/Cyclin K (Homo sapiens) (UniProt P50750+O75909); experiment: Inhibition of human CDK9/cyclin K by radiometric assay relative to control; format: protein-complex assay; parameters: concentration or dose not given beside the values; conditions: concentration not given here
[21] = target: CDK2/Cyclin A1 (Homo sapiens, UniProt P24941); experiment: Inhibition of recombinant human His/GST-tagged CDK2/Cyclin A expressed in baculovirus infected Sf9 cells using Histone H1 as substrate after 80 mins in presence of [33P]ATP by microbeta scintillation counting analysis
[22] = target: T1, CDK9/cyclin T1; experiment: Inhibition of CDK9/cyclin T1 (unknown origin) using cdk7tide peptide as substrate; format: protein-complex assay
[23] = target: Cyclin-dependent kinase 1/cyclin B1 (Homo sapiens, UniProt P06493); experiment: Inhibition of recombinant human CDK1/cyclin B expressed in baculovirus infected Sf9 insect cells after 80 mins in presence of [33P]ATP by microbeta scintillation counting analysis
Chain of Cyclin-dependent kinase 1/cyclin B1 (P06493 whole entry): as the sequence (P06493 whole entry) above
Chain of Cyclin-dependent kinase 1/cyclin B1 (P14635 whole entry, further chain): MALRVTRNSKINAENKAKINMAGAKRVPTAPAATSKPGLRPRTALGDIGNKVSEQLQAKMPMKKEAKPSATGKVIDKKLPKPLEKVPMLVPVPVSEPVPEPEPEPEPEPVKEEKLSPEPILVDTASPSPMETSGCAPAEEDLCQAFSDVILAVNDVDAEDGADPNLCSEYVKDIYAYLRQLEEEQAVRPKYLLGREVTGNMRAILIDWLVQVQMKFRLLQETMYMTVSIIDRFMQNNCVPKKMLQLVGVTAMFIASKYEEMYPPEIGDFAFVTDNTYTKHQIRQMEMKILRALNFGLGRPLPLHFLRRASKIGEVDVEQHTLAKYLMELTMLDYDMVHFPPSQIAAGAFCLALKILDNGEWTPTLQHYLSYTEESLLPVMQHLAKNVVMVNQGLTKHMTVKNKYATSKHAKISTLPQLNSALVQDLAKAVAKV

[24] = target: T4, CDK3/Cyclin E; experiment: Inhibition of recombinant human CDK3/cyclin E expressed in baculovirus infected Sf9 insect cells after 80 mins in presence of [33P]ATP by microbeta scintillation counting analysis
[25] = target: T5, Cyclin-dependent kinase 5/CDK5 activator 1 (Homo sapiens, UniProt Q00535); experiment: Inhibition of recombinant human His/GST-tagged CDK5/p35 expressed in baculovirus infected Sf9 insect cells using Rb-CTF as substrate after 80 mins in presence of [33P]ATP by microbeta scintillation counting analysis
T5 sequence (Q00535 whole entry): as the sequence (Q00535 whole entry) above
T5 sequence (Q15078 whole entry, further chain): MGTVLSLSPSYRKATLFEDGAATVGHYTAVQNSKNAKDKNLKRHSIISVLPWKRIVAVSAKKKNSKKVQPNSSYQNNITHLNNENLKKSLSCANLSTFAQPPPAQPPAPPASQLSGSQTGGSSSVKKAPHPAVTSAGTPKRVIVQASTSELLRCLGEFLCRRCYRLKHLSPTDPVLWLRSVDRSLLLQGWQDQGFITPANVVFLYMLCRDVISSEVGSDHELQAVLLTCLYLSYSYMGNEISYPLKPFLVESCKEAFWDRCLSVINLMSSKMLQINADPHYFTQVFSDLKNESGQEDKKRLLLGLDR

[26] = target: T5, Cyclin-dependent kinase 5/CDK5 activator 1; experiment: Inhibition of human recombinant CDK5/p25 expressed in baculovirus infected Sf9 insect cells after 30 mins by [gamma-33P]ATP based scintillation counting analysis
[27] = target: T1, CDK9/cyclin T1; experiment: Inhibition of recombinant human His-tagged CDK9/cyclin T1 expressed in baculovirus infected sf9 cells using (biotinyl-Ahx-(Tyr-Ser-ProThr-Ser-Pro-Ser)4-NH2 as substrate after 45 mins by [gamma-32P]ATP based microbeta scintillation counting analysis
[28] = target: Cyclin-dependent kinase 2/cyclin E1 (Homo sapiens, UniProt P24941); experiment: Inhibition of recombinant human His6-tagged CDK2/cyclin E expressed in baculovirus infected sf9 cells using histone H1 susbtrate in presence of [gamma32P]ATP after 10 mins by scintillation counting method
[29] = target: Tyrosine-protein kinase JAK2 (Homo sapiens, UniProt O60674); experiment: Inhibition of human recombinant GST-tagged JAK2 expressed in baculovirus expression system

Compound: COc1ccccc1-c1cc(Nc2ccc(F)c(NS(C)(=O)=O)c2)ncn1
Ki [6]: > 1000 nM | Ki [7]: > 1000 nM | Ki [8]: 17 nM | Ki [9]: > 1000 nM | Ki [10]: > 1000 nM | Ki [11]: > 1000 nM

Compound: CN1C/C=C/CCOc2cccc(c2)-c2ccnc(n2)Nc2cccc(c2)C1 [ZOTIRACICLIB]
IC50 [6]: 3 to 15 nM | IC50 [12]: 21 nM | IC50 [13]: 3 to 15 nM | IC50 [14]: 3 to 15 nM | IC50 [15]: 3 to 15 nM

Compound: Nc1nccc(-c2c[nH]c3nccc(O)c23)n1 [MERIOLIN 2]
IC50 [18]: 57 nM

Compound: O=C1Cc2c([nH]c3ccc([N+](=O)[O-])cc23)-c2ccccc2N1
inhibition [19]: > 75% | inhibition [20]: > 75%

Compound: COc1ccnc2c1c(-c1ccnc(N)n1)cn2C [MERIOLIN 9]
IC50 [18]: > 10000 nM | IC50 [26]: > 10000 nM

Compound: Cc1c(-c2ccnc(Nc3ccc(N4CCNCC4)cc3)n2)sc(=O)n1C
Ki [27]: 0.4 nM

Compound: CN1CC[C@H](c2c(O)cc(O)c3c(=O)cc(-c4ccc(C(F)(F)F)cc4)oc23)[C@H](O)C1
CC50 at 72 h [1]: 1200 nM | IC50 [2]: 19 nM | IC50 [3]: 302 nM

Compound: Nc1nc(Nc2ccc(S(N)(=O)=O)cc2)nn1C(=S)Nc1c(F)cccc1F
inhibition [19]: > 75% | inhibition [20]: > 75%

Compound: COc1ccnc2[nH]cc(-c3ccnc(N)n3)c12 [MERIOLIN 3]
IC50 [18]: 170 nM

Compound: O=C1CC/C=C\COc2cccc(c2)-c2ccnc(n2)Nc2cccc(c2)N1
IC50 [28]: 2600 nM | IC50 [29]: 1700 nM

More lines, main results first:

IC50 [2]: 5.5 nM | IC50 [3]: 224 nM
Compound: CN1CC[C@H](c2c(O)cc(O)c3c(=O)cc(-c4ccc(Br)cc4)oc23)[C@H](O)C1
CC50 at 72 h [1]: 280 nM

IC50 [4]: 16 nM | IC50 [5]: 246 nM
Compound: CC(C)c1c2cc(-c3ccnc(N[C@H]4CC[C@H](NC5CCOCC5)CC4)n3)ccc2nn1C

IC50 [2]: 2.8 nM | IC50 [3]: 357 nM
Compound: CN1CC[C@H](c2c(O)cc(O)c3c(=O)cc(-c4ccccc4F)oc23)[C@H](O)C1
CC50 at 72 h [1]: 274 nM

Ki [16]: 660 nM
Compound: O=C(NC1CCNCC1)c1n[nH]cc1NC(=O)c1c(Cl)cccc1Cl [AT-7519]

IC50 [17]: 1860 nM
Compound: NCCCNc1cc(-c2cncc(NCC3CCOCC3)c2)c(Cl)cn1

IC50 [21]: 913 to 1880 nM | IC50 [22]: 10 nM | IC50 [23]: 913 to 1880 nM | IC50 [24]: 913 to 1880 nM | IC50 [25]: 913 to 1880 nM
Compound: COc1cc(F)ccc1-c1ccnc(NC(=O)[C@@H]2CC[C@H](NC(C)=O)C2)c1

IC50 [21]: 94 to 1080 nM | IC50 [23]: 94 to 1080 nM | IC50 [24]: 94 to 1080 nM | IC50 [25]: 94 to 1080 nM
Compound: COc1cc(F)ccc1-c1ccnc(NC(=O)[C@H]2CCC[C@@H](NC(C)=O)C2)c1

IC50 [17]: 3440 nM
Compound: Clc1cnc(NC2CCCC2)cc1-c1cnc(N2CCOCC2)c(NCC2CCOCC2)c1

IC50 [2]: 2.1 nM | IC50 [3]: 129 nM
Compound: CN1CC[C@H](c2c(O)cc(O)c3c(=O)cc(-c4ccc(F)cc4)oc23)[C@H](O)C1
CC50 at 72 h [1]: 200 nM
